Measurements from patent US11787847B2, “Method of identifying malodor modulating compounds” (FIRMENICH SA, priority 2017, dated 2023).
pEC50: −log10 of the molar value.

Tests used:
[1] = test system: mouse receptor Olfr1193, Olfr1093, Olfr1097, Olrf166, Olfr169, Olfr738 and Olfr742, and human receptor OR4S2 and OR52N5; test: cAMP HTRF dose-response assay in HEK293T cells expressing odorant receptors (Example 2); assay type: cell-based; details: increasing concentrations of odorant, receptors co-transfected with human Golf
human receptor OR4C15 = biological target: T1, human receptor OR4C15 (Homo sapiens, UniProt Q8NGM1); test: cell-based dose-response, Ca2+ increase (Calcium 5 dye, FLIPR), HEK293T line stably expressing FLAG-Rho tagged receptor with human Gα15; details: FIG. 3, Example 3, SEQ ID NO: 30, stable HEK293T
T1 construct: The receptors were tagged with a FLAG®-Rho tag combination; expressed in transfected cells
T1 sequence (Q8NGM1 with tags, fused parts or gaps): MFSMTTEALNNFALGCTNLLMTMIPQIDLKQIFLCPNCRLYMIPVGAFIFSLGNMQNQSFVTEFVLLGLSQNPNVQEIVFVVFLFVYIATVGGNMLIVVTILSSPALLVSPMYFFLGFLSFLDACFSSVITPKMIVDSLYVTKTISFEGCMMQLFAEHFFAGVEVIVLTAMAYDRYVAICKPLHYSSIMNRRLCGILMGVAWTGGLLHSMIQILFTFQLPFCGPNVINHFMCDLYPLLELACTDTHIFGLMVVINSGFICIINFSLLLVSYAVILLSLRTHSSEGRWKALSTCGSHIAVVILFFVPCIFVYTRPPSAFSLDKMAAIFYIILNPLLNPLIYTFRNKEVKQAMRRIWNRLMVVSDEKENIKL
Protocol: (§1) Functional dose-response experiments were performed to evaluate the level of DMTS activity of the modified cell lines expressing individual putative DMTS receptors. A cell line stably expressing a human receptor was generated in a HEK293T cell line for each of the following human receptors: OR2L13, OR4C15, OR5AC2, OR8H3, OR11G2 or OR52N2. The receptors were tagged with a FLAG®-Rho tag combination and stably co-expressed with the human G-protein alpha subunit Gals for the cell based assay. Co-expression of the human Gals activates the Gq transduction pathway that leads to an internal Ca^2+ increase upon binding to the appropriate ligand. Receptors were exposed to increasing concentrations of DMTS. Odorant-induced activity was detected by measuring the Ca^2+ increase in the cytosol using a calcium sensitive fluorescent dye (Molecular Devices, Calcium 5 dye, cat. R8186) and measuring the change in Relative Fluorescence Ratio (RFU) using a fluorometric imaging plate reader (Molecular Devices, FLIPR) following odorant exposure. […] A cell line lacking a receptor was used as a control for non-specific activity at high compound concentrations (‘No receptor’). The activity levels are reported by the potency of the DMTS induced-response for each receptor as a measure of the EC50 value.

human receptor OR52N2 = biological target: T2, human receptor OR52N2 (Homo sapiens, UniProt Q8NGI0); test: as above; details: FIG. 3, Example 3, SEQ ID NO: 38, stable HEK293T
T2 construct: The receptors were tagged with a FLAG®-Rho tag combination; expressed in transfected cells
T2 sequence (Q8NGI0 1-321): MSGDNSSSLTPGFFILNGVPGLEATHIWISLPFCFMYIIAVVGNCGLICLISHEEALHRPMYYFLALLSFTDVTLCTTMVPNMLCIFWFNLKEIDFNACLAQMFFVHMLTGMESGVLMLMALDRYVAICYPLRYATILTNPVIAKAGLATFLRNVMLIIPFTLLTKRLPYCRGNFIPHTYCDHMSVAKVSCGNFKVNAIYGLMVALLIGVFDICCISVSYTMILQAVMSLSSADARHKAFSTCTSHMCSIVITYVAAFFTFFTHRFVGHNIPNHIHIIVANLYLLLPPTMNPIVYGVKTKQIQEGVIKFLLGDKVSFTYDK
Protocol: as §1

human receptor OR2L13 = biological target: T3, human receptor OR2L13 (Homo sapiens, UniProt Q8N349); test: as above; details: FIG. 3, Example 3, SEQ ID NO: 26, stable HEK293T
T3 construct: The receptors were tagged with a FLAG®-Rho tag combination; expressed in transfected cells
T3 sequence (Q8N349 1-312): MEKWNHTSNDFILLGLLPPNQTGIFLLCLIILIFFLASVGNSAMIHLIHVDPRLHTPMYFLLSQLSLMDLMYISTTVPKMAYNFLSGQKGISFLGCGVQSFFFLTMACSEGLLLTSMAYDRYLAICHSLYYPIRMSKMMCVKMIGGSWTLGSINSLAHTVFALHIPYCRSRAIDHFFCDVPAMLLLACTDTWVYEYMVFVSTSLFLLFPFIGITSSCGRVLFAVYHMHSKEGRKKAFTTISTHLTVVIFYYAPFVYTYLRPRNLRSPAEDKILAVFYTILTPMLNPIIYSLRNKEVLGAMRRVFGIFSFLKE
Protocol: as §1

human receptor OR8H3 = biological target: T4, human receptor OR8H3 (Homo sapiens, UniProt Q8N146); test: as above; details: FIG. 3, Example 3, SEQ ID NO: 34, stable HEK293T
T4 construct: The receptors were tagged with a FLAG®-Rho tag combination; expressed in transfected cells
T4 sequence (Q8N146 1-312): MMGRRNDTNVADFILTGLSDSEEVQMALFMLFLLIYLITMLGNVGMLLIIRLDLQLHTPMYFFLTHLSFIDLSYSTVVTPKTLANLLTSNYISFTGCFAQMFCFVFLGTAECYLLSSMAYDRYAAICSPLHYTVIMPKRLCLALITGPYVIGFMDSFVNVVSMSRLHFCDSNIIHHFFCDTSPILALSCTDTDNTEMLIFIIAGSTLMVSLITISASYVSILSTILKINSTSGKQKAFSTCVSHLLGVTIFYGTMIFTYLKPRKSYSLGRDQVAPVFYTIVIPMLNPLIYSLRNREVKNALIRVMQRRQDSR
Protocol: as §1

human receptor OR11G2 = biological target: T5, human receptor OR11G2 (Homo sapiens, UniProt Q8NGC1); test: as above; details: FIG. 3, Example 3, SEQ ID NO: 36, stable HEK293T
T5 construct: The receptors were tagged with a FLAG®-Rho tag combination; expressed in transfected cells
T5 sequence (Q8NGC1 35-345 limits assumed): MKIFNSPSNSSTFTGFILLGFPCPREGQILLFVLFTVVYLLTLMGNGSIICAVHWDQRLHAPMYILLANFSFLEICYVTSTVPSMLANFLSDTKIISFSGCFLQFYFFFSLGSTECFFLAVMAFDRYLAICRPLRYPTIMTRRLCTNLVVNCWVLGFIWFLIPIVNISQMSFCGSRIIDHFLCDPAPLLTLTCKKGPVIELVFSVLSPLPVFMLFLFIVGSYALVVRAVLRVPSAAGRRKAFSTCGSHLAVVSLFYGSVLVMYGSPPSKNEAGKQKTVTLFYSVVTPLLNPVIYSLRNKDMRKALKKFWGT
Protocol: as §1

pEC50 (human receptor OR4C15): 6.10
pEC50 (human receptor OR52N2): 5.30
pEC50 (human receptor OR2L13): 4.23
pEC50 (human receptor OR8H3): 4.21
pEC50 (human receptor OR11G2): 4.92
Structure (SMILES): CSSSC [DMTS, dimethyl trisulfide]
receptor activity (cAMP increase in the cytosol) [1]: dose-dependent increase of the receptor activity
